US20190070165A1, “N-HYDROXYISOQUINOLINEDIONE INHIBITORS OF HBV REPLICATION” (Saint Louis University, priority 2016, published 2019)
Like-named read-outs stand apart in the source and are kept apart here.

Legend:
HSV-1 = HSV-1 replication inhibition assay in Vero cells; format: cell-based, herpes simplex virus 1; settings: read-out: HSV-1 suppression (log10 at 5 μM), class symbol
HBV RNaseH [1] = molecular target: T1, HBV RNaseH (Hepatitis B virus genotype D subtype ayw, UniProt P03156); settings: for HBV RNaseH: Table 1, qualitative inhibition in biochemical assay; for Inhibition of HBV RNaseH, Oligonucleotide directed cleavage assay: Table 3, compounds at 100, 60 and 20 μM, compounds 1-91 and 138-140 previously reported (Cai et al., 2014); for inhibition of RNA cleavage by HBV RNaseH: compounds at 100, 60 and 20 μM
Description: RNaseH expression and purification. […] The enriched extracts were dialyzed into 50 mM HEPES pH 7.3, 300 mM NaCl, 20% glycerol, and 5 mM DTT and stored in liquid nitrogen.
Oligonucleotide-directed RNA cleavage assay. […] This mixture was incubated with test compounds in 50 mM Tris pH 8.0, 190 mM NaCl, 5 mM MgCl2, 3.5 mM DTT, 0.05% NP40, 6% glycerol, and 1% DMSO at 42° C. for 90 minutes. Cleavage products were resolved by denaturing polyacrylamide gel electrophoresis, detected by autoradiography, and quantified using ImageJ. Non-specific background values were determined from the incorrect oligonucleotide negative control lane and subtracted from all experimental values. IC50 values were then calculated with GraphPad Prism using three-parameter log(inhibitor) vs. response non-linear curve fitting with the curve minimum set to zero to reflect background subtraction.
The HBV RNaseH inhibition activity of the 16 previously untested compounds was examined using an oligonucleotide-directed cleavage assay. Compounds were incubated with the HBV RNaseH, a ^32P-labeled RNA substrate plus a complementary DNA oligonucleotide and compounds at 100, 60, and 20 μM and the amount of the RNA cleavage products was measured following resolution on an acrylamide gel.
Briefly, a ^32P-labeled RNA was combined with a DNA oligonucleotide and the RNA:DNA substrate was incubated in the presence of the RNaseH and test compounds in 50 mM tris pH 8.0, 190 mM NaCl, 5 mM MgCl2, 3.5 mM DTT, 0.05% NP40, 6% glycerol, and 1% DMSO at 42° C. for 90 minutes. The products were resolved by gel electrophoresis and detected by audioradioagraphy.

HBV RNaseH [2] = molecular target: T1, HBV RNaseH; test: Molecular beacon RNaseH assay; settings: for inhibition in the molecular beacon assay: 2.1 μg purified HBV RNaseH; for Inhibition of HBV RNaseH, Molecular Beacon cleavage assay: Table 3, 0 to 500 μM
Description: In this assay, a hairpin DNA oligonucleotide labeled with fluorescein on one end and a quencher on the other is held in a linear conformation by annealing to a complementary RNA; cleavage of the RNA causes the DNA to fold into a hairpin, suppressing fluorescence (FIG. 8A).
The substrate is a hairpin DNA oligonucleotide with a 5′ fluorescein reporter and a 3′ black hole quencher annealed to a complementary RNA oligonucleotide. The reaction was initiated by adding 5 mM Mg^++, and fluorescence was monitored at 37° C. with a Synergy 4 96-well plate reader. Inhibition was qualitatively determined as a dose-dependent reduction in the rate of substrate degradation.

HBV replication = HBV replication inhibition assay in HepDES19 cells (strand-preferential q-PCR); format: cell-based, Hepatitis B virus; settings: Hepatitis B virus
HIV replication = settings: literature values (Billamboz et al., 2011b; Suchaud et al., 2014); cited from earlier work
human RNaseH1 = molecular target: T2, human RNaseH1 (Homo sapiens, UniProt O60930); test: Oligonucleotide-directed RNA cleavage assay, human RNaseH1; format: biochemical; settings: for IC50: Table 1, quantitative values
T2 construct: made in house; host or cells: E. coli
T2 sequence (O60930 1-286): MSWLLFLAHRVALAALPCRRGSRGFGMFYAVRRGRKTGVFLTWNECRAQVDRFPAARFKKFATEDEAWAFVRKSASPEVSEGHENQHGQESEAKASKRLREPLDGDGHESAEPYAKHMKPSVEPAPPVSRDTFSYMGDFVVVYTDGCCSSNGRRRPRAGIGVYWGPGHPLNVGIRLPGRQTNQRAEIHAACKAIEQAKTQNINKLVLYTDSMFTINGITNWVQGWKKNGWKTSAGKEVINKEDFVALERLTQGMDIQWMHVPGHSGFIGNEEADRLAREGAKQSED
Text: RNaseH expression and purification.
Oligonucleotide-directed RNA cleavage assay.

[3] = MTS cytotoxicity assay (CellTiter 96); settings: human
Description: (§1) HepDES19 cells were seeded at 1×10^4 cells per well in a 96 well plate in the absence of tetracycline. The test compounds were applied in triplicate to the cells 48 hours later and the cells were incubated for 72 hours. Cell viability was measured using the CellTiter 96 Aqueous Non-Radioactive Cell Proliferation Assay (Promega). [3-(4,5-dimethylthiazol-2-yl)-5-(3-carboxymethoxyphenyl)-2-(4-sulfophenyl)-2H-tetrazolium, inner salt] (MTS) and phenazine methosulfate (PMS) solution at 2 mg/mL MTS and 0.043 mg/mL PMS were added to the medium, the cells were incubated for two hours at 37° C., and absorbance was measured at 490 nm. […] Neutral red was added to the media at a final concentration of 40 μg/mL. Cells were washed with PBS and incubated with neutral red medium for two hours at 37° C. The neutral red medium was removed and the cells were washed with PBS. […] Lactate dehydrogenase (LDH) release was measured using the LDH-cytotoxicity colorimetric assay kit (BioVision). Cells were lysed with 1% Triton-X to provide the high control and DMSO vehicle treatment was the low control. Supernatants were collected and transferred to a fresh 96 well plate, and LDH reaction mixture containing the catalyst and dye solution was added. The reaction was incubated for 15-20 minutes at room temperature in a dark box and absorbance was measured at 490 nm. Percent cytotoxicity was calculated as [(test sample−low control)/([…])]×100.

HepDES19 cells = test: MTS cytotoxicity assay (CellTiter 96); settings: CC50 by MTS assay over EC50
Description: as §1

MTT cytotoxicity assay = format: cell-based; settings: human; Table 2, HepDES19 cells
Description: MTT cytotoxicity assays. 1.0×10^4 HepDES19 cells per well were seeded in 96-well plates and incubated in DMEM with 10% FBS plus 1% P/S, 1% non-essential amino acids, and 1% glutamine. Compounds were diluted in medium to the indicated concentrations plus 1% DMSO and added to cells 24 hours after plating, with each concentration tested in triplicate. Medium containing the compound was refreshed daily for the next two days. Thiazolyl blue tetrazolium bromide (MTT, Sigma-Aldrich) was added to 0.25 mg/mL, the cultures were incubated for 60 minutes, metabolites were solubilized in acidic isopropanol, and absorbance was read at 570 nm.

[4] = Lactate dehydrogenase (LDH) release cytotoxicity assay; format: cell-based; settings: human, HepDES19 cells, read-out: Toxicity in HepDES19, LDH (CC50)
Description: (§2) To further evaluate potential cytotoxicity of these hits, the effect of the compounds was determined for the uptake of neutral red (NR) by the lysosomes and lactate dehydrogenase (LDH) release into the supernatant due to cell membrane permeability. […] Overall, the TI values in Table 3 and FIG. 4 indicate that cytotoxicity was not the cause of antiviral efficacy, although it may have contributed to the apparent efficacy for #84, 85, 90, and 91, which all have TI values below 5.

[5] = Neutral red (NR) cytotoxicity assay; format: cell-based; settings: human, HepDES19 cells, read-out: Toxicity in HepDES19, NR (CC50)
Description: as §2

[6] = Stability in mouse liver microsomes; format: in vitro ADME
HBV infections = settings: cited from earlier work
[7] = HepDES19, read-out: HBV replication inhibition (EC50, μm)
[8] = HepDES19 cells, read-out: EC50, HBV replication
[9] = Table 2, HepDES19 cells, read-out: EC50
[10] = Human alphaherpesvirus 1, 24 h, 5 μM, Vero cells

T1 sequence (P03156 671-832): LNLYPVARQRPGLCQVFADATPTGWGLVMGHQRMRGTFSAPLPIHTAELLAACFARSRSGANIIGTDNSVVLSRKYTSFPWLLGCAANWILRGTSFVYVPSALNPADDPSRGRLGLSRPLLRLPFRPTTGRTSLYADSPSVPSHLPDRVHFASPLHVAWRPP

| Molecule | HBV RNaseH (HBV RNaseH [1]) | Inhibition of HBV RNaseH, Oligonucleotide directed cleavage assay (HBV RNaseH [1]) | inhibition of RNA cleavage by HBV RNaseH (HBV RNaseH [1]) | inhibition in the molecular beacon assay (HBV RNaseH [2]) | Inhibition of HBV RNaseH, Molecular Beacon cleavage assay (HBV RNaseH [2]) | EC50 (HBV replication; [7]) [µM] | EC50 (HBV replication; [8]) [µM] | EC50 (HBV replication; [9]) [µM] | EC50 (HIV replication) [µM] | IC50 (human RNaseH1) [µM] | CC50 at 72 h [3] [µM] | log reduction at 5 µM (HSV-1; [10]) | CC50 at 72 h [4] [µM] | CC50 at 72 h [5] [µM] | also measured |
| --- | --- | --- | --- | --- | --- | --- | --- | --- | --- | --- | --- | --- | --- | --- | --- |
| COC(=O)C1C(=O)N(O)C(=O)c2ccccc21 (centres unmarked) [Compound 81] | +/− | − (No inhibition detected at 100 μM) | negative | inhibited | + (Dose-dependent inhibition at ≤500 μM) | 4.4 ± 3 | 4.4 | 4 | 13.4 | 4.9 | – | – | – | – | log reduction at 5 µM (HSV-1; Human alphaherpesvirus 1, Vero, 24 h): < 1 |
| O=C(Nc1ccc2c(c1)C(=O)N(O)C(=O)C2C(=O)NCc1ccc(F)cc1)c1ccccc1 (centres unmarked) [Compound 86] | +/− | − (No inhibition detected at 100 μM) | – | – | − (No inhibition detected at 500 μM) | 1.4 ± 0.3 | 1.4 | 1.4 | > 21 | 4 | 99 ± 2 | < 1 | > 100 | 52 ± 11 | TI (therapeutic index, CC50(MTS)/EC50) (HepDES19 cells): 71; CC50 (MTT cytotoxicity assay): > 100 µM |
| C/C(=N\c1ccccc1NO)c1c(C)cc(=O)n(O)c1O [Compound 208] | – | + (Dose-dependent inhibition at ≤100 μM) | inhibited RNA cleavage by the HBV RNaseH | inhibited | + (Dose-dependent inhibition at ≤500 μM) | 0.69 ± 0.2 | – | – | – | – | 15 ± 7 | < 1 | 12 ± 0.1 | 13 ± 1 | stability in mouse liver microsomes [6]: stable; EC50 (HBV replication; HepDES19, read-out: EC50, HBV replication): 0.69 µM; inhibition of huRNaseH1 (human RNaseH1; compounds at 100, 60 and 20 μM): did not inhibit the huRNaseH1 at 100 μM |
| Interferon α | – | – | – | – | – | – | – | – | – | – | – | – | – | – | patients with sustained clinical improvement (HBV infections): 20-30% |
